Test results: ChEMBL document CHEMBL4431319, “Design and synthesis of 4'-O-alkylamino-tethered-benzylideneindolin-2-ones as potent cytotoxic and apoptosis inducing agents” (Bioorg Med Chem Lett, 2016)
Active and inactive are the calls of the source. The rule behind the calls is not given here.

How the values were obtained:
[1] = system: DU-145; test: Cytotoxicity against human DU145 cells after 48 hrs by MTT assay; type: functional, cell-based; settings: DU-145, 48 h
[2] = system: BT-549; test: Cytotoxicity against human BT549 cells after 48 hrs by MTT assay; type: functional, cell-based; settings: BT-549, 48 h
[3] = system: MDA-MB-231; test: Cytotoxicity against human MDA-MB-231 cells after 48 hrs by MTT assay; type: functional, cell-based; settings: MDA-MB-231, 48 h
[4] = system: A549; test: Cytotoxicity against human A549 cells after 48 hrs by MTT assay; type: functional, cell-based; settings: A549, 48 h
[5] = system: MCF-10A; test: Cytotoxicity against human MCF10A cells after 48 hrs by MTT assay; type: cell-based
[6] = system: MDA-MB-231; test: Induction of detachment of human MDA-MB-231 cells at compound IC50 after 24 to 48 hrs by phase contrast microscopic analysis; type: functional, cell-based
[7] = system: MDA-MB-231; test: Disruption of F-actin-mediated stress fiber formation around nucleus in human MDA-MB-231 cells at compound IC50 after 12 hrs by rhodamine-phalloidin/[…] staining-based confocal microscopic analysis; type: functional, cell-based
[8] = system: MDA-MB-231; test: Induction of apoptosis in human MDA-MB-231 cells assessed as appearance of horseshoe shaped nuclei at compound IC50 after 24 hrs by […] staining-based fluorescence microscopic analysis; type: functional, cell-based
[9] = system: MDA-MB-231; test: Induction of apoptosis in human MDA-MB-231 cells assessed as chromatin condensation at compound IC50 after 24 hrs by […] staining-based fluorescence microscopic analysis; type: functional, cell-based
[10] = system: MDA-MB-231; test: Disruption of mitochondrial membrane potential in human MDA-MB-231 cells at compound IC50 after 24 hrs by rhodamine 123 staining-based spectrofluorometric analysis; type: functional
[11] = system: MDA-MB-231; test: Induction of apoptosis in human MDA-MB-231 cells assessed as pyknosis at compound IC50 after 24 hrs by […] staining-based fluorescence microscopic analysis; type: functional, cell-based
[12] = system: MDA-MB-231; test: Induction of apoptosis in human MDA-MB-231 cells assessed as fragmented nuclei at compound IC50 after 24 hrs by […] staining-based fluorescence microscopic analysis; type: functional, cell-based
[13] = system: MDA-MB-231; test: Induction of nuclear shrinkage in human MDA-MB-231 cells at IC50 after 24 to 48 hrs by phase contrast microscopic analysis; type: functional, cell-based
[14] = system: MDA-MB-231; test: Antimigratory activity in human MDA-MB-231 cells at compound IC50 after 24 to 48 hrs by wound healing assay relative to control; type: functional, cell-based
[15] = system: MDA-MB-231; test: Induction of ROS generation in human MDA-MB-231 cells at compound IC50 after 24 hrs by DCFDA staining-based spectrofluorometric analysis relative to control; type: functional, cell-based
[16] = system: MDA-MB-231; test: Induction of cell cycle arrest in human MDA-MB-231 cells assessed as accumulation at […] at 10 uM after 24 hrs by propidium iodide staining based flow cytometry (reference value: 26.12%); type: functional
[17] = system: MDA-MB-231; test: Induction of cell cycle arrest in human MDA-MB-231 cells assessed as accumulation at […] at 5 uM after 24 hrs by propidium iodide staining based flow cytometry (reference value: 26.12%); type: functional
[18] = system: MDA-MB-231; test: Induction of cell cycle arrest in human MDA-MB-231 cells assessed as accumulation at G2/M phase at 10 uM after 24 hrs by propidium iodide staining based flow cytometry (reference value: 18.86%); type: functional
[19] = system: MDA-MB-231; test: Induction of cell cycle arrest in human MDA-MB-231 cells assessed as accumulation at G0/G1 phase at 2.5 uM after 24 hrs by propidium iodide staining based flow cytometry (reference value: 55.02%); type: functional
[20] = system: MDA-MB-231; test: Induction of cell cycle arrest in human MDA-MB-231 cells assessed as accumulation at G2/M phase at 2.5 uM after 24 hrs by propidium iodide staining based flow cytometry (reference value: 18.86%); type: functional
[21] = system: MDA-MB-231; test: Induction of cell cycle arrest in human MDA-MB-231 cells assessed as accumulation at […] at 2.5 uM after 24 hrs by propidium iodide staining based flow cytometry (reference value: 26.12%); type: functional
[22] = system: MDA-MB-231; test: Induction of cell cycle arrest in human MDA-MB-231 cells assessed as accumulation at G2/M phase at 5 uM after 24 hrs by propidium iodide staining based flow cytometry (reference value: 18.86%); type: functional
[23] = system: MDA-MB-231; test: Induction of cell cycle arrest in human MDA-MB-231 cells assessed as accumulation at G0/G1 phase at 10 uM after 24 hrs by propidium iodide staining based flow cytometry (reference value: 55.02%); type: functional
[24] = system: MDA-MB-231; test: Induction of cell cycle arrest in human MDA-MB-231 cells assessed as accumulation at G0/G1 phase at 5 uM after 24 hrs by propidium iodide staining based flow cytometry (reference value: 55.02%); type: functional

SMILES | IC50 [1] | IC50 [2] | IC50 [3] | IC50 [4] | IC50 [5] | further results
COc1cc(/C=C2\C(=O)Nc3ccccc32)ccc1OCCCN1CCN(c2ncccc2C(F)(F)F)CC1 | > 20 µM | > 20 µM | > 20 µM | > 20 µM |  | 
COc1cc(/C=C2\C(=O)Nc3ccc(F)cc32)ccc1OCCN1CCOCC1 | > 20 µM | > 20 µM | > 20 µM | > 20 µM |  | 
COc1cc(/C=C2\C(=O)Nc3ccccc32)ccc1OCCCN1CCc2ccccc21 | > 20 µM | > 20 µM | > 20 µM | > 20 µM |  | 
COc1cc(/C=C2\C(=O)Nc3ccc(C)cc32)ccc1OCCCN1CCOCC1 | > 20 µM | > 20 µM | > 20 µM | > 20 µM |  | 
COc1cc(/C=C2\C(=O)Nc3ccccc32)ccc1OCCCN1CCOCC1 | > 20 µM | > 20 µM | > 20 µM | > 20 µM |  | 
COc1cc(/C=C2\C(=O)Nc3ccc(Cl)cc32)ccc1OCCCN1CCOCC1 | 2.91 µM | 2.79 µM | 2.51 µM | 5.5 µM | > 100 µM | 
COc1cc(/C=C2\C(=O)Nc3ccccc32)ccc1OCCCN1CCN(c2ccccn2)CC1 | > 20 µM | > 20 µM | > 20 µM | > 20 µM |  | 
COc1cc(/C=C2\C(=O)Nc3ccc(Cl)cc32)ccc1OCCCN1CCN(c2ccccn2)CC1 | > 20 µM | > 20 µM | 14.8 µM | > 20 µM | 51.3 µM | 
COc1cc(/C=C2\C(=O)Nc3ccc(Cl)cc32)ccc1OCCCN1CC(C)OC(C)C1 (configuration not stated) | 2.71 µM | 2.77 µM | 1.99 µM | 6.25 µM | 54.6 µM | Activity [6]: Active; Activity [7]: Active; Activity [8]: Active; Activity [9]: Active; Activity [10]: 28%; Activity [11]: Active; Activity [12]: Active; Activity [13]: Active; Activity [14]: Active; Activity [15]: Active
COc1cc(/C=C2\C(=O)Nc3ccccc32)ccc1OCCCn1nc(C)cc1C | > 20 µM | > 20 µM | > 20 µM | > 20 µM |  | 
COc1cc(/C=C2\C(=O)Nc3ccc(C)cc32)ccc1OCCN1CCOCC1 | > 20 µM | > 20 µM | 9.5 µM | > 20 µM | > 100 µM | 
COc1cc(/C=C2\C(=O)Nc3ccc(Br)cc32)ccc1OCCN1CCOCC1 | > 20 µM | > 20 µM | > 20 µM | > 20 µM |  | 
COc1cc(/C=C2\C(=O)Nc3ccccc32)ccc1OCCCN1CC(C)OC(C)C1 (configuration not stated) | > 20 µM | > 20 µM | 15.2 µM | > 20 µM |  | 
COc1cc(/C=C2\C(=O)Nc3ccc(Cl)cc32)ccc1OCCCN1CCN(C)CC1 | 2.15 µM | 2.17 µM | 1.75 µM | 11.3 µM | 43.6 µM | Activity [6]: Active; Activity [7]: Active; Activity [8]: Active; Activity [9]: Active; Activity [10]: 32%; Activity [11]: Active; Activity [12]: Active; Activity [13]: Active; Activity [14]: Active; Activity [15]: Active
COc1cc(/C=C2\C(=O)Nc3ccc(C)cc32)ccc1OCCCN1CC(C)OC(C)C1 (configuration not stated) | > 20 µM | > 20 µM | 11.5 µM | > 20 µM |  | 
COc1cc(/C=C2\C(=O)Nc3ccc(Cl)cc32)ccc1OCCCN1CCN(c2ncccc2C(F)(F)F)CC1 | 1.61 µM | 1.53 µM | 1.26 µM | 9.53 µM | 41.3 µM | Activity [6]: Active; Activity [16]: 5.81%; Activity [7]: Active; Activity [8]: Active; Activity [9]: Active; Activity [17]: 11.74%; Activity [10]: 40%; Activity [18]: 9.42%; Activity [19]: 68.53%; Activity [20]: 13.45%; Activity [11]: Active; Activity [12]: Active; Activity [13]: Active; Activity [21]: 17.93%; Activity [22]: 10.54%; Activity [14]: Active; Activity [15]: Active; Activity [23]: 84.74%; Activity [24]: 77.62%
COc1cc(/C=C2\C(=O)Nc3ccccc32)ccc1OCCN1CCOCC1 | > 20 µM | > 20 µM | > 20 µM | > 20 µM |  | 
COc1cc(/C=C2\C(=O)Nc3ccccc32)ccc1OCCCN1CCN(C)CC1 | 2.23 µM | 2.53 µM | 2.07 µM | 3.35 µM | > 100 µM | 
COc1cc(/C=C2\C(=O)Nc3ccc(C)cc32)ccc1OCCCN1CCN(c2ncccc2C(F)(F)F)CC1 | > 20 µM | > 20 µM | > 20 µM | > 20 µM |  | 
COc1cc(/C=C2\C(=O)Nc3ccc(Cl)cc32)ccc1OCCN1CCOCC1 | 4.43 µM | 3.52 µM | 3.31 µM | 14.7 µM | 61.3 µM | 
